The text below walks through data of PMC10623271 (Heliyon, 2023).

One may read the IC50 as the point on the concentration scale where inhibition reaches its midpoint. A high value points to a need for much substance.

The target of this assay is α-glucosidase from Bacillus stearothermophilus. Kind of assay: α-glucosidase assay. It counts as biochemical. Conditions: positive control, pNPG, 20 min 60 °C, pH 6.8, ± SD.

For the molecule `C[C@H]1O[C@H](O[C@H]2[C@H](O)[C@@H](O)[C@@H](O[C@H]3[C@H](O)[C@@H](O)C(O)O[C@@H]3CO)O[C@@H]2CO)[C@H](O)[C@@H](O)[C@@H]1N[C@H]1C=C(CO)[C@@H](O)[C@H](O)[C@H]1O` (stereo partly shown) [Acarbose, acarbose], inhibition was half-maximal at 2.9 ± 0.4 nM (IC50).
